This note sets out measurements from patent US20060079512A1, “Dibenzodiazepinone analogues, processes for their production and their use as pharmaceuticals” (Ecopia BioSciences, Inc., priority 2003, published 2006).

SMILES strings stand for the structures.

This data set in a line: in vivo.

`CC(C)=CCC/C(C)=C/CC/C(C)=C/CN1C(=O)c2cccc(O)c2N(C)c2c(O)cc(O)cc21` [Compound 2, 10-farnesyl-4,6,8-trihydroxy-5-methyl-5,10-dihydro-dibenzo[b,e][1,4]diazepin-11-one]: the NOAEL is, setting by setting: (CD-1 nu/nu, mouse, in vivo, ip) 30 mg/kg; (CD-1 nu/nu, mouse, in vivo, iv) 75 mg/kg. In addition, the MTD (CD-1 nu/nu, mouse, in vivo, ip, acute) is at least 50 mg/kg. The weight losses result (for several days post-injection) is on record as “about 7%”.
